According to patent US20240270762A1, “PENICILLIN-BINDING PROTEIN INHIBITORS” (priority 2021, published 2024):
≈ marks a conversion by molar mass, not a printed value. Where two headings read alike, the source gives them in different places.

Legend:
[1] = target: T1, PBP3 from Acinetobacter baumannii (ATCC 19606) (Acinetobacter baumannii, UniProt A0ABX6CK25); assay: Bocillin-FL fluorescence polarization competition binding, A. baumannii PBP3; settings: fluorescence polarization competition binding assay using Bocillin-FL; read-out: A. baumannii PBP3 Potency
T1 sequence (A0ABX6CK25 64-610): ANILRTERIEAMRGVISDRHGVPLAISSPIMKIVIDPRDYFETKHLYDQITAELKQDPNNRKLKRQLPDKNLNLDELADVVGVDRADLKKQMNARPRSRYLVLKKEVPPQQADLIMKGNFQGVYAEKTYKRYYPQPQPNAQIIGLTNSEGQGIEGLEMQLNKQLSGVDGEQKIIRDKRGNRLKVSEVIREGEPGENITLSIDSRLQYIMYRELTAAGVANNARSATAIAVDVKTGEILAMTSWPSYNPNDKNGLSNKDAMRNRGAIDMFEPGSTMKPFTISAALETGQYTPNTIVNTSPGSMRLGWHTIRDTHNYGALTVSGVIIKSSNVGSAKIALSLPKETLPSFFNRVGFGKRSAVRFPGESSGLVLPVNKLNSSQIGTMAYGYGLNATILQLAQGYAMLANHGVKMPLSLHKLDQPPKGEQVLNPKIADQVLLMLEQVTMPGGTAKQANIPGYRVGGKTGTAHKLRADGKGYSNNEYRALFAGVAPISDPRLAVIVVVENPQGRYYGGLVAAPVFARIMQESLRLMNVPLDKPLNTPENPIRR
Method in brief: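 Purified PBP was preincubated with inhibitor (E. coli PBP3 1.5 μM, 30 min; P. aeruginosa PBP3 0.75 μM, A. baumannii PBP3 0.2 μM and PBP1a 1 μM, 15 min), then Bocillin-FL (0.1 μM; 0.05 μM for PBP1a) added and FP read up to 60 min. EC50 = 50% loss of bound probe.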

P. aeruginosa CDC-0095 = assay: microbe, parasite or virus in culture; assay type: cell-based; settings: Pseudomonas aeruginosa, CDC0095, read-out: Minimum inhibitory concentration, P. aeruginosa CDC-0095
A. baumannii 1258916 = assay: microbe, parasite or virus in culture; assay type: cell-based, Acinetobacter baumannii; settings: Acinetobacter baumannii, 1258916, read-out: MIC, A. baumannii 1258916
A. baumannii CDC-0036 = assay: microbe, parasite or virus in culture; assay type: cell-based; settings: Acinetobacter baumannii, CDC0036, read-out: MIC, A. baumannii CDC-0036
N. gonorrhoeae FA1090 = assay: Liquid broth MIC in Fastidious broth; settings: Neisseria gonorrhoeae
Method: (§1) Additional antibacterial testing of the series was performed in 8 reference strains of N. gonorrhoeae (ATCC 49226, FA1090, MS 11, WHO G, WHO L, WHO M, WHO K, WHO X, WHO Z, WHO Q, CDC-0197). ATCC 49226, FA1090, MS11, WHO G, WHO L, and WHO M produce wild type or wild-type like PBP2. WHO K, WHO X, WHO Z, WHO Q, and CDC-0197 produce mosaic PBP2. Liquid broth-based assays were used for antibacterial testing of PBP inhibitors in Neisseria gonorrhoeae. Briefly, cryo-preserved bacterial cultures of clinical strains were streaked for isolation on Chocolate Agar (72 g/L (2×) GC Agar Base (BD #228950) and 2% (2×) Hemoglobin was autoclaved at 121° C. for 20 minutes to sterilize. Once cooled to ˜50° C. the 2×GC Agar Base and 2× Hemoglobin solutions are combined and 1% IsoVitaleX Enrichment (BD #211876) was added to the solution). Strains were incubated at 36° C. and 5% CO2 to allow growth of colonies, 24 hours before inoculum preparation. 2-fold serial dilutions of test compounds were conducted in a 96 well plate with a final volume of 75 μL per well at 2-fold the final desired concentration in Fastidious broth (Remel #R07664). For preparation of assay inoculum, a direct suspension was prepared by aseptically swabbing 10-15 colonies from agar plates into culture tubes containing 2 mL of fresh sterile saline. After the dilution plates were set up, direct suspensions were then diluted in a cuvette containing sterile saline and the optical density was measured at 600 nm. Inocula were diluted such that 75 μL of this culture in Fastidious broth results in a starting bacterial concentration of 5×10^5 CFU/mL when added to the dilution plates. The plates were incubated for ˜24 hours at 36° C. and 5% CO2.

N. gonorrhoeae WHO G = assay: Liquid broth MIC in Fastidious broth; settings: Neisseria gonorrhoeae
N. gonorrhoeae WHO M = assay: Liquid broth MIC in Fastidious broth; settings: Neisseria gonorrhoeae
N. gonorrhoeae WHO K = assay: Liquid broth MIC in Fastidious broth; settings: Neisseria gonorrhoeae
N. gonorrhoeae WHO X = assay: Liquid broth MIC in Fastidious broth; settings: Neisseria gonorrhoeae
Method: Liquid broth-based assays were used for antibacterial testing of PBP inhibitors in Neisseria gonorrhoeae. Briefly, cryo-preserved bacterial cultures of clinical strains were streaked for isolation on Chocolate Agar (72 g/L (2×) GC Agar Base (BD #228950) and 2% (2×) Hemoglobin was autoclaved at 121° C. for 20 minutes to sterilize. Once cooled to ˜50° C. the 2×GC Agar Base and 2× Hemoglobin solutions are combined and 1% IsoVitaleX Enrichment (BD #211876) was added to the solution). Strains were incubated at 36° C. and 5% CO2 to allow growth of colonies, 24 hours before inoculum preparation. 2-fold serial dilutions of test compounds were conducted in a 96 well plate with a final volume of 75 μL per well at 2-fold the final desired concentration in Fastidious broth (Remel #R07664). For preparation of assay inoculum, a direct suspension was prepared by aseptically swabbing 10-15 colonies from agar plates into culture tubes containing 2 mL of fresh sterile saline. After the dilution plates were set up, direct suspensions were then diluted in a cuvette containing sterile saline and the optical density was measured at 600 nm. Inocula were diluted such that 75 μL of this culture in Fastidious broth results in a starting bacterial concentration of 5×10^5 CFU/mL when added to the dilution plates. The plates were incubated for ˜24 hours at 36° C. and 5% CO2.

N. gonorrhoeae WHO Z = assay: Liquid broth MIC in Fastidious broth; settings: Neisseria gonorrhoeae
Method: as §1

N. gonorrhoeae WHO Q = assay: Liquid broth MIC in Fastidious broth; settings: Neisseria gonorrhoeae
[2] = FA1090, read-out: Minimum Inhibitory Concentration, FA 1090
[3] = read-out: Minimum Inhibitory Concentration, WHO G
[4] = read-out: Minimum Inhibitory Concentration, WHO M
[5] = read-out: Minimum Inhibitory Concentration, WHO K
[6] = read-out: Minimum Inhibitory Concentration, WHO X
[7] = read-out: Minimum Inhibitory Concentration, WHO Z
[8] = read-out: Minimum Inhibitory Concentration, WHO Q
[9] = FA1090, read-out: Minimum Inhibitory Concentration (MIC), N. gonorrhoeae FA 1090
[10] = read-out: Minimum Inhibitory Concentration (MIC), N. gonorrhoeae WHO G
[11] = read-out: Minimum Inhibitory Concentration (MIC), N. gonorrhoeae WHO M
[12] = read-out: Minimum Inhibitory Concentration (MIC), N. gonorrhoeae WHO K
[13] = read-out: Minimum Inhibitory Concentration (MIC), N. gonorrhoeae WHO X
[14] = read-out: Minimum Inhibitory Concentration (MIC), N. gonorrhoeae WHO Z
[15] = read-out: Minimum Inhibitory Concentration (MIC), N. gonorrhoeae WHO Q

| Structure (SMILES) | IC50 [1] [µM] | MIC (P. aeruginosa CDC-0095) [µg/mL] | MIC (A. baumannii 1258916) [µg/mL] | MIC (A. baumannii CDC-0036) [µg/mL] | MIC (N. gonorrhoeae FA1090; [2]) [µg/mL] | MIC (N. gonorrhoeae WHO G; [3]) [µg/mL] | MIC (N. gonorrhoeae WHO M; [4]) [µg/mL] | MIC (N. gonorrhoeae WHO K; [5]) [µg/mL] | MIC (N. gonorrhoeae WHO X; [6]) [µg/mL] | MIC (N. gonorrhoeae WHO Z; [7]) [µg/mL] | MIC (N. gonorrhoeae WHO Q; [8]) [µg/mL] | MIC (N. gonorrhoeae FA1090; [9]) [µg/mL] | MIC (N. gonorrhoeae WHO G; [10]) [µg/mL] | MIC (N. gonorrhoeae WHO M; [11]) [µg/mL] | MIC (N. gonorrhoeae WHO K; [12]) [µg/mL] | MIC (N. gonorrhoeae WHO X; [13]) [µg/mL] | MIC (N. gonorrhoeae WHO Z; [14]) [µg/mL] | MIC (N. gonorrhoeae WHO Q; [15]) [µg/mL] |
| --- | --- | --- | --- | --- | --- | --- | --- | --- | --- | --- | --- | --- | --- | --- | --- | --- | --- | --- |
| O=C(NCCS(=O)(=O)N1CCN(C(=O)N[C@H](C(=O)N[C@H]2Cc3ccc(F)c(C(=O)O)c3OB2O)c2cc(F)c(O)c(O)c2Cl)C1=O)c1nccs1 [Example 263, (R)-3-((S)-2-(2-chloro-5-fluoro-3,4-dihydroxyphenyl)-2-(2-oxo-3-((2-(thiazole-2-carboxamido)ethyl)sulfonyl)imidazolidine-1-carboxamido)acetamido)-7-fluoro-2-hydroxy-3,4-dihydro-2H-benzo[e][1,2]oxaborinine-8-carboxylic acid] | 10 to 50 | > 128 | 32 to 64 (≈ 41.4 to 82.8 µM) | 32 to 64 (≈ 41.4 to 82.8 µM) | > 64 | > 64 | > 64 | > 64 | > 64 | > 64 | > 64 |  |  |  |  |  |  |  |
| O=C(NCCCN1CCN(C(=O)NC(C(=O)N[C@H]2Cc3ccc(F)c(C(=O)O)c3OB2O)c2cc(F)c(O)c(O)c2Cl)C(=O)C1=O)c1cccc(O)c1 (stereo partly drawn) [Example 204, (3R)-3-(2-(2-chloro-5-fluoro-3,4-dihydroxyphenyl)-2-(4-(3-(3-hydroxybenzamido)propyl)-2,3-dioxopiperazine-1-carboxamido)acetamido)-7-fluoro-2-hydroxy-3,4-dihydro-2H-benzo[e][1,2]oxaborinine-8-carboxylic acid] | < 10 | < 1 | < 1 | 2 to 4 (≈ 2.63 to 5.26 µM) |  |  |  |  |  |  |  | 1 to 2 (≈ 1.32 to 2.63 µM) | 4 to 8 (≈ 5.26 to 10.5 µM) | 4 to 8 (≈ 5.26 to 10.5 µM) | > 64 | > 64 | 16 to 32 (≈ 21.1 to 42.1 µM) | > 64 |
| O=C(NCCCS(=O)(=O)N1CCN(C(=O)N[C@H](C(=O)N[C@H]2Cc3ccc(F)c(C(=O)O)c3OB2O)c2cc(F)c(O)c(O)c2Cl)C1=O)c1cccc(O)c1 [Example 270, (R)-3-((S)-2-(2-chloro-5-fluoro-3,4-dihydroxyphenyl)-2-(3-((3-(3-hydroxybenzamido)propyl)sulfonyl)-2-oxoimidazolidine-1-carboxamido)acetamido)-7-fluoro-2-hydroxy-3,4-dihydro-2H-benzo[e][1,2]oxaborinine-8-carboxylic acid] | < 10 | > 128 | 8 to 16 (≈ 10.1 to 20.1 µM) | 32 to 64 (≈ 40.2 to 80.4 µM) | 16 to 32 (≈ 20.1 to 40.2 µM) | > 64 | > 64 | > 64 | > 64 | > 64 | > 64 |  |  |  |  |  |  |  |
| O=C(NCCCN1CCN(C(=O)NC(C(=O)N[C@H]2Cc3ccc(F)c(C(=O)O)c3OB2O)c2cc(F)c(O)c(O)c2Cl)C(=O)C1=O)c1ccncc1 (stereo partly drawn) [Example 205, (3R)-3-(2-(2-chloro-5-fluoro-3,4-dihydroxyphenyl)-2-(4-(3-(isonicotinamido)propyl)-2,3-dioxopiperazine-1-carboxamido)acetamido)-7-fluoro-2-hydroxy-3,4-dihydro-2H-benzo[e][1,2]oxaborinine-8-carboxylic acid] | < 10 | < 1 | < 1 | < 1 |  |  |  |  |  |  |  | 1 to 2 (≈ 1.34 to 2.69 µM) | 4 to 8 (≈ 5.37 to 10.7 µM) | 4 to 8 (≈ 5.37 to 10.7 µM) | > 64 | > 64 | 16 to 32 (≈ 21.5 to 43 µM) | 16 to 32 (≈ 21.5 to 43 µM) |
